Results as given in ChEMBL document CHEMBL1201862, “PubChem BioAssay data set” (2004).
Activity calls are given as the source filed them.

Columns and labels:
Cytochrome P450 3A4 = Cytochrome P450 3A4 (Homo sapiens, UniProt P08684);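 further: CYP3A4 tested as one member of a cytochrome P450 panel screen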
Streptokinase A = target: T1, Streptokinase A (Streptococcus pyogenes serotype M1, UniProt P10520); assay: viability-normalized secreted streptokinase activity reduction – plasminogen activation absorbance, OD405, dose response (AID 1914); assay type: functional, Streptococcus pyogenes M1 GAS;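 further: secreted streptokinase activity via plasminogen activation per viability signal from cell pellet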
T1 sequence (P10520 whole entry): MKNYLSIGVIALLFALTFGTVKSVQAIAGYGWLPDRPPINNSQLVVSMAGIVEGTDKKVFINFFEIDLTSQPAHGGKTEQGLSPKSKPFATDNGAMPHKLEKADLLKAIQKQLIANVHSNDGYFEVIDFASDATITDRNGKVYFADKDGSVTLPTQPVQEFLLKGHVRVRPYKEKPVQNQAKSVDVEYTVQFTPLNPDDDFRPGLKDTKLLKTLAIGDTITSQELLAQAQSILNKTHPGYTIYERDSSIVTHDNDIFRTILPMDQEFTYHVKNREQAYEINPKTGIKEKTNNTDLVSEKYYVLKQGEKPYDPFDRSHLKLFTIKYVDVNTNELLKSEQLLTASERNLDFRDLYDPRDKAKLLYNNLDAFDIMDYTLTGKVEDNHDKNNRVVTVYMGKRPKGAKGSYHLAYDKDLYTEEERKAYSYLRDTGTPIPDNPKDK

Streptococcus = assay: GAS UMAA2166 growth inhibition – luminescence, BacTiterGlo, counter-screen for streptokinase expression inhibitor project, dose response (AID 1915); assay type: functional, organism-based;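 further: potency for reduction of bacterial viability or growth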
[1] = system: Streptococcus sp. 'group A'; assay: Streptococcus pyogenes SK(-)GAS viability under kanamycin – luminescence, BacTiterGlo, confirmation, counter-screen for streptokinase expression inhibitor project, dose response (AID 1900); assay type: functional, organism-based
Cytochrome P450 2C19 = Cytochrome P450 2C19 (Homo sapiens, UniProt P33261); assay: Cytochrome panel assay with activity outcomes. Panel member name: p450-cyp2c19 Compounds with AC50 equal or less than 10 uM are considered active; assay type: functional
Chain of Cytochrome P450 2C19 (P33261 whole entry): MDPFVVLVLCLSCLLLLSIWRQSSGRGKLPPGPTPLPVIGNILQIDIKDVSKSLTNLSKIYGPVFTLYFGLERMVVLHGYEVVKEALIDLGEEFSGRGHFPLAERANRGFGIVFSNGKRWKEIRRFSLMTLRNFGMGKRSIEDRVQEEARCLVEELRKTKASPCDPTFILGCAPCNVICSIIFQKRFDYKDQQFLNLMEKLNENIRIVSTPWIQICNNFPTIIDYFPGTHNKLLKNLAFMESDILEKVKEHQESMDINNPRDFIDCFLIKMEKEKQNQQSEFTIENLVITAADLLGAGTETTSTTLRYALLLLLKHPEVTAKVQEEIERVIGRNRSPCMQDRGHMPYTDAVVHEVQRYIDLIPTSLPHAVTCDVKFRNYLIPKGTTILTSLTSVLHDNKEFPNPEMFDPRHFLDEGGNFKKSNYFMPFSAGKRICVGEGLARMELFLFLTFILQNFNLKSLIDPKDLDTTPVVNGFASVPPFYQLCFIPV

Cytochrome P450 2D6 = Cytochrome P450 2D6 (Homo sapiens, UniProt P10635);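 further: CYP2D6 member of a cytochrome P450 panel assay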
Chain of Cytochrome P450 2D6 (P10635 whole entry): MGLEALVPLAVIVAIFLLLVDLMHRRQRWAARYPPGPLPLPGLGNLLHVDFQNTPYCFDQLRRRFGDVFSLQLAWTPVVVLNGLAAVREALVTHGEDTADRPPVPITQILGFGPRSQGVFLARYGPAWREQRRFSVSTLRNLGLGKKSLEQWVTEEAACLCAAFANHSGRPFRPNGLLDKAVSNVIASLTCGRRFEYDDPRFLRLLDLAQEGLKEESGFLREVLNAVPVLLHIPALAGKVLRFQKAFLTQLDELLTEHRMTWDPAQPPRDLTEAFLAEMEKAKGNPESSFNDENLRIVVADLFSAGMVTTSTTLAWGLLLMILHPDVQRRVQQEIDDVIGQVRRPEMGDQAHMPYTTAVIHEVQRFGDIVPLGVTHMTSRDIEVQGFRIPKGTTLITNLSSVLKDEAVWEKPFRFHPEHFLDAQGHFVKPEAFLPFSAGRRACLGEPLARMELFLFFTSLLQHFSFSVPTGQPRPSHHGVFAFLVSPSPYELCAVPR

Cytochrome P450 2C9 = Cytochrome P450 2C9 (Homo sapiens, UniProt P11712)
Chain of Cytochrome P450 2C9 (P11712 whole entry): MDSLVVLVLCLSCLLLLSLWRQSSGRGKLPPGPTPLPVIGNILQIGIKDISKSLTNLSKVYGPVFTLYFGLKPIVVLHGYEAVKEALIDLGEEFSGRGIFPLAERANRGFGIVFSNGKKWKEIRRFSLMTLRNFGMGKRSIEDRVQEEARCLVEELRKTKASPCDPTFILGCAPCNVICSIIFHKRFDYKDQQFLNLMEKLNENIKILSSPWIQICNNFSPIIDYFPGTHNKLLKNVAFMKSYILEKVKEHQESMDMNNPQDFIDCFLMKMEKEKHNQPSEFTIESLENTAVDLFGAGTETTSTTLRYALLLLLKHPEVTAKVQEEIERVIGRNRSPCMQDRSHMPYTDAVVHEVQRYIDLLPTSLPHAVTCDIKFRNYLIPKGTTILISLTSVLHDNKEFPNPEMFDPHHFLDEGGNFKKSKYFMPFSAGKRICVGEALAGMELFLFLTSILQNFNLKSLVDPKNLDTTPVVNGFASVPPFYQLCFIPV

[2] = target: T2, Heat shock factor protein 1 (Mus musculus, UniProt P38532); assay: decrease of HSF1-responsive luciferase luminescence – cell-based, NIH3T3, dose retest, confirmation (AID 2382); assay type: functional;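 further: NIH3T3 fibroblasts with HSF1-driven luciferase reporter stressed by proteasome inhibitor MG132; luminescence from HSF1-driven luciferase expression after 8 hours of MG132 stress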
T2 sequence (P38532 whole entry): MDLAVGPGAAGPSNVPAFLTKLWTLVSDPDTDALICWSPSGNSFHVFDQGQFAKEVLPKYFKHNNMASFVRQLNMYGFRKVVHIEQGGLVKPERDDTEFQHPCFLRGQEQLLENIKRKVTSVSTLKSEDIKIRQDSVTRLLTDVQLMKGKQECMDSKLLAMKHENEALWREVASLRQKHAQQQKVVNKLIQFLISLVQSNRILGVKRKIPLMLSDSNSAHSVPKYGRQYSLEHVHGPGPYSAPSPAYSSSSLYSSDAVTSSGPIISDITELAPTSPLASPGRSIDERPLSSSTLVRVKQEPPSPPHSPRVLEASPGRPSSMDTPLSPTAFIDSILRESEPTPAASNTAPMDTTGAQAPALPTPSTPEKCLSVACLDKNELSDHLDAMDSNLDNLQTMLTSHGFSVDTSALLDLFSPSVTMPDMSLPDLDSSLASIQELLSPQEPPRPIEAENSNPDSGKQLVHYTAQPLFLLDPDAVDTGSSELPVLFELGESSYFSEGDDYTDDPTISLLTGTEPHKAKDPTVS

Cytochrome P450 1A2 = target: T3, Cytochrome P450 1A2 (Homo sapiens, UniProt P05177);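 further: PubChem cytochrome P450 panel assay, CYP1A2 panel member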
T3 sequence (P05177 whole entry): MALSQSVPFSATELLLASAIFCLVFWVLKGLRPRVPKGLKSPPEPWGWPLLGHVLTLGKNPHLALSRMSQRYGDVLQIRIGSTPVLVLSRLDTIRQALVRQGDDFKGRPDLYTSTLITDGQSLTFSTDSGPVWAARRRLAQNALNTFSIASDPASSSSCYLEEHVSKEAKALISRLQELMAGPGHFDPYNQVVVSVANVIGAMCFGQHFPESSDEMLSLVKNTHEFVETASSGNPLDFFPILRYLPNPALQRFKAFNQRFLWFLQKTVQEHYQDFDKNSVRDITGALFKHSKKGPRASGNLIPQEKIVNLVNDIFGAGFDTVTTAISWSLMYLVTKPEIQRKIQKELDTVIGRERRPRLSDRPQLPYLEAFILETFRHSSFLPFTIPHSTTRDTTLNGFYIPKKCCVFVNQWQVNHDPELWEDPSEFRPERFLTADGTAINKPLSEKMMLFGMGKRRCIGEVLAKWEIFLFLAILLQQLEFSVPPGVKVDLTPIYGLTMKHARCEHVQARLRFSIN

[3] = alpha-synuclein stem-loop luciferase translation blockers – H4 neuroglioma cells, luminescence, confirmation (AID 1988); assay type: functional, cell-based
[4] = Luminescence Cell-Based Dose Response HTS to Identify Inhibitors of 5'UTR Stem-Loop Driven Prion Protein mRNA Translation in H4 Neuroglioblastoma Cells. [Related pubchem assays: 1827 (Project Summary), 1813 (Primary HTS)]; assay type: functional

Chain of Cytochrome P450 3A4 (P08684 whole entry): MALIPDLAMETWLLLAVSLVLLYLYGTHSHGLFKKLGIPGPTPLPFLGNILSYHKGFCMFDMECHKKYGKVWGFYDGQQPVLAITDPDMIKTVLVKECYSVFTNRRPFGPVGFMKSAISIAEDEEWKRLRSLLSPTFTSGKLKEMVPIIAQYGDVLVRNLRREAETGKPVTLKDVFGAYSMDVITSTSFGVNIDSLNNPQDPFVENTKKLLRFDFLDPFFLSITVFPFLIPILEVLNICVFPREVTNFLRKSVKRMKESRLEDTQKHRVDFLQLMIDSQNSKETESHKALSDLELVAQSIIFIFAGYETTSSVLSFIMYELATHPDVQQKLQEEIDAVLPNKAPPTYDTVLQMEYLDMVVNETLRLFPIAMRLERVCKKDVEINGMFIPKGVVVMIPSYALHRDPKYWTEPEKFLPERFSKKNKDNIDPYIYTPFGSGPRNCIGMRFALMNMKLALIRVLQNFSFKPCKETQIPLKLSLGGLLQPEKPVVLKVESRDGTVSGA

Fc1ccc(CSc2ncnc3sc4c(c23)CCCC4)cc1
AC50 (Cytochrome P450 3A4): 35.5 µM (inconclusive) | EC50 (Streptokinase A): 13.3 µM (active) | EC50 (Streptococcus): > 150 µM (not active) | EC50 [1]: 22.8 µM (active)

N=c1ccn2c(n1)O[C@H]1[C@@H](OP(=O)(O)O)[C@H](CO)O[C@H]12
AC50 (Cytochrome P450 2C19): inconclusive

COc1ccccc1CNc1ncnc2ccc(-c3cccc(C#N)c3)cc12
AC50 (Cytochrome P450 2D6): 2.51 µM (inconclusive)

CC(C)Oc1ccc(N2CC(C(=O)OCC(=O)NCc3ccccc3)CC2=O)cc1 (centres undefined)
AC50 (Cytochrome P450 2D6): 22.4 µM (inconclusive) | AC50 (Cytochrome P450 2C9): 28.2 µM (inconclusive)

CCOC(=O)c1nnc(O)c2ccccc12
EC50 [2]: > 195 µM (not active)

CCOC(=O)C1=C(C)NC(=O)N[C@@H]1c1coc2cc(C)cc(C)c2c1=O
AC50 (Cytochrome P450 1A2): 2.51 µM (inconclusive) | AC50 (Cytochrome P450 3A4): 3.98 µM (inconclusive)

CS(=O)(=O)N1CCC2(CC1)CN(Cc1ccncc1)C2
AC50 (Cytochrome P450 3A4): 31.6 µM (inconclusive) | AC50 (Cytochrome P450 2D6): 20 µM (inconclusive)

O=C(O)[C@H]1CCCC[C@@H]1c1c2ccc(=O)c(O)c-2oc2c(O)c(O)ccc12
AC50 (Cytochrome P450 2C19; read-out: AC50): 2.51 µM (inconclusive) | AC50 (Cytochrome P450 2C9): 6.31 µM (inconclusive)

O=C(c1cccc(F)c1)N1CCC2(CCCN(c3ccncc3)C2)CC1
AC50 (Cytochrome P450 1A2): 31.6 µM (inconclusive) | AC50 (Cytochrome P450 2D6): 15.8 µM (inconclusive)

CN(C)c1ccc(-c2ccc3ncnc(N4CCNCC4)c3c2)cc1
AC50 (Cytochrome P450 2C19; read-out: AC50): 25.1 µM (inconclusive)

COc1ccc(Nc2nc(Nc3ccc(OC)cc3)nc(-n3[nH]c(=O)c(C)c3C)n2)cc1
EC50 [2]: 22.3 µM (active)

Cc1nc2cnc(Oc3ccccc3)nc2n(C2CC2)c1=O
AC50 (Cytochrome P450 3A4): 25.1 µM (inconclusive) | AC50 (Cytochrome P450 2C9): 12.6 µM (inconclusive)

Cc1cc(NC(=O)Nc2ccc(F)cc2)no1
AC50 (Cytochrome P450 2C9): 15.8 µM (inconclusive)

CC(=O)Nc1cccc(-n2c(=O)n(Cc3ccccc3)c(=O)c3[nH]cnc32)c1
EC50 [2]: > 195 µM (not active)

CCOc1ccc(N/N=C(/C#N)C(N)=O)cc1
AC50 (Cytochrome P450 3A4): 20 µM (inconclusive) | AC50 (Cytochrome P450 2C9): 15.8 µM (inconclusive)

COc1ccc(Br)cc1/C=C/c1ccc2cccc(O)c2n1
EC50 [3]: > 120 µM (not active) | EC50 (Streptokinase A): > 150 µM (not active) | EC50 (Streptococcus): 6.48 µM (active) | EC50 [1]: 0.246 µM (active) | EC50 [4]: 13.4 µM (active)

O=S(=O)(NCCNC/C=C\c1ccc(Br)cc1)c1cccc2cnccc12
AC50 (Cytochrome P450 2C19; read-out: AC50): 15.8 µM (inconclusive) | AC50 (Cytochrome P450 2D6): 25.1 µM (inconclusive)

c1ccc2c(c1)CCCc1cc(NCCN3CCOCC3)nnc1-2
AC50 (Cytochrome P450 3A4): 6.31 µM (inconclusive)

Cc1cccc(OCCCC(=O)Nc2ccccc2C(F)(F)F)c1
AC50 (Cytochrome P450 2D6): 25.1 µM (inconclusive)

NS(=O)(=O)c1ccc(/N=N\c2cccnc2O)cc1
AC50 (Cytochrome P450 1A2): 0.501 µM (inconclusive) | AC50 (Cytochrome P450 2C19; read-out: AC50): 3.98 µM (inconclusive) | AC50 (Cytochrome P450 2C9): 3.16 µM (inconclusive)

CN(C)c1ncc2nc(-c3cccs3)c(=O)n(C)c2n1
AC50 (Cytochrome P450 3A4): 31.6 µM (inconclusive)

COC(=O)c1cn(NC(=O)CCC2CCCC2)c(=O)c2ccccc12
EC50 [2]: > 195 µM (not active)

COC(=O)[C@@]1(Cc2ccc(F)cc2)[C@H]2c3cc(C(=O)N(C)C)n(Cc4c(CO)ncc(C)c4O)c3C[C@H]2CN1C(=O)c1ccccc1
AC50 (Cytochrome P450 1A2): 25.1 µM (inconclusive) | AC50 (Cytochrome P450 2C19; read-out: AC50): 25.1 µM (inconclusive)

Cc1ccc(F)cc1NC(=O)CCNC(=O)c1ccc([N+](=O)[O-])cc1
EC50 [2]: > 195 µM (not active)

O=C(O)c1csc(-c2ccccc2)n1
EC50 [2]: > 195 µM (not active)

Cc1ccc(SCc2ccc(C(=O)NCc3ccncc3)cc2)cc1
AC50 (Cytochrome P450 3A4): 7.08 µM (inconclusive)

COc1ccc(-n2nc3ccccc3n2)cc1
EC50 [2]: > 195 µM (not active)

CC(=O)c1ccc(NC(=O)C2CC(c3ccc(F)cc3)=NO2)cc1 (centres undefined)
AC50 (Cytochrome P450 1A2): 0.00794 µM (inconclusive) | AC50 (Cytochrome P450 2C19; read-out: AC50): 17.8 µM (inconclusive) | AC50 (Cytochrome P450 2C9): 1.12 µM (inconclusive)

O=C(O)c1ccccc1Nc1cccc(C(F)(F)F)c1 [FLUFENAMIC ACID]
AC50 (Cytochrome P450 2C9): 10 µM (inconclusive)

Cc1cccc(NC(S)=NNC(=O)CC(C)O)c1C (centres undefined)
AC50 (Cytochrome P450 2C9): 0.00708 µM (inconclusive)

COc1ccc2[nH]cc(CCNc3nc(-c4ccoc4)nc4ccccc34)c2c1
AC50 (Cytochrome P450 2C9): 1 µM (inconclusive)

CCCOc1ccc2cc(C(=O)NCc3ccccc3)c(=O)oc2c1
EC50 [2]: 42 µM (active)

CCCn1c(N)c(C(=O)CSc2nc3ccccc3c(=O)n2Cc2ccccc2)c(=O)[nH]c1=O
EC50 [2]: > 195 µM (not active)

Cc1cccc(-c2ocnc2C(=O)N2CCN(C(=O)c3cccs3)CC2)c1
EC50 [2]: > 195 µM (not active)

Cc1cc(C)cc(NC(=O)CC(=N)NO)c1
AC50 (Cytochrome P450 3A4): 28.2 µM (inconclusive)

c1cc(CNCCN2CCNCC2)ccn1
AC50 (Cytochrome P450 3A4): 5.01 µM (inconclusive) | AC50 (Cytochrome P450 2D6): 3.98 µM (inconclusive)

Cc1nc(SCC(=O)Nc2ccc(N3CCOCC3)cc2)nc(C)c1C
AC50 (Cytochrome P450 2C9): 12.6 µM (inconclusive)

CN(C)CCOC(=O)C1(c2ccccc2)CCOCC1
AC50 (Cytochrome P450 2C19; read-out: AC50): 20 µM (inconclusive)

c1cncc(-c2cc(-c3cc(-c4cccnc4)[nH]n3)n[nH]2)c1
AC50 (Cytochrome P450 1A2): 0.501 µM (inconclusive) | AC50 (Cytochrome P450 3A4): 5.01 µM (inconclusive)

CCCCCCCCN[C@@H](C)[C@H](O)c1ccc(SC(C)C)cc1 [SULOCTIDIL]
AC50 (Cytochrome P450 2C19; read-out: AC50): 10 µM (inconclusive) | AC50 (Cytochrome P450 2C9): 0.00501 µM (inconclusive)

CC(=O)c1cccc(NC(=O)CN2C(S)=NC(C)(C)CC2C)c1 (centres undefined)
EC50 [2]: > 195 µM (not active)

Cn1c(=O)c2c(nc(Sc3ncnn3CC(=O)N3CCOCC3)n2C)n(C)c1=O
EC50 [2]: > 195 µM (not active)

COc1ccc(/C=N/NC(=O)Nc2cccc3nsnc23)cc1OC
EC50 [2]: 9.51 µM (active)

CCCN1C(=O)C(Cc2nc3ccccc3c(=O)n2C)c2ccccc21 (centres undefined)
AC50 (Cytochrome P450 1A2): 25.1 µM (inconclusive) | AC50 (Cytochrome P450 2C19; read-out: AC50): 0.0562 µM (inconclusive) | AC50 (Cytochrome P450 2D6): 17.8 µM (inconclusive)

C#CCCCO/N=C1/C[C@@H](O)[C@@H](O)[C@@H]2[C@@H]3C(=O)N(Cc4ccccc4)C(=O)[C@H]3CC[C@@H]12
AC50 (Cytochrome P450 2C19): inconclusive

O=c1cnc2cnc(Oc3ccccc3)nc2n1Cc1cccs1
AC50 (Cytochrome P450 3A4): 15.8 µM (inconclusive) | AC50 (Cytochrome P450 2D6): 39.8 µM (inconclusive)

COc1cccc(C(=O)Nc2ccc(NC(=O)c3ccco3)cn2)c1
AC50 (Cytochrome P450 1A2): 25.1 µM (inconclusive) | AC50 (Cytochrome P450 2D6): 20 µM (inconclusive)

Cc1cccc(CNc2ncnc3ccc(-c4cccc(C#N)c4)cc23)c1
AC50 (Cytochrome P450 2C9): 0.794 µM (inconclusive)

Cn1cc(-c2nc3cnc(N4CCNCC4)nc3n(C3CC3)c2=O)c2ccccc21
AC50 (Cytochrome P450 3A4): 7.94 µM (inconclusive)

O=C(CCCC(=O)N(c1ccc2c(c1)OCCO2)C(C(=O)NC1CCCCC1)c1ccc(Cl)cc1)Nc1ccccn1 (centres undefined)
EC50 [2]: > 195 µM (not active)

Cc1noc(NS(=O)(=O)c2ccc(NC(=O)CC34CC5CC(CC(Br)(C5)C3)C4)cc2)c1C
AC50 (Cytochrome P450 2C19): inconclusive | AC50 (Cytochrome P450 2C9): 22.4 µM (inconclusive)
